Experimental data reported in patent US20210046124A1, “HUMAN FUNCTIONAL CORNEAL ENDOTHELIAL CELL AND APPLICATION THEREOF” (KYOTO PREFECTURAL PUBLIC UNIVERSITY CORPORATION, priority 2016, published 2021).
Several values for one entry are separate records, joined by “and”; a condition that tells them apart may be missing. Equal values may be shown once. Entries after “also recorded” stand apart in the source; their conditions may differ. Where a name gives a salt, the structure may show the parent alone.

What was measured:
Format in all cases: cell-based, human
[1] = tested on: cultured HCECs; assay: Flow cytometry (FACS) of surface CD markers CD44, CD166, CD24, CD26, CD105 of cultured HCECs; E-ratio; settings: for effect on the E-ratio: presence of the agent during culture
Source text: FIG. 68 is a diagram showing the method to estimate the content of effector (E-ratio) in a cultured cell population by FACS analysis. The gate is set as followings in measurements using PE-Cy7-labeled anti-human CD44 antibodies (BD Biosciences) and setting the Area Scaling Factor of Blue laser of FACS Canto II to 0.75 and voltage of PE-Cy7 to 495. First, fractions A, B, C, and D are set in the dot plot (top row left) where the X axis is CD24 and the Y axis is CD166. At this time, fraction A is CD24 negative and CD166 positive, fraction B is CD24 positive and CD166 positive, fraction C is CD24 negative and CD166 negative, and fraction D is CD24 positive and CD166 negative. The proportion of fraction B when target cells for analysis are 100% is considered the content of non-intended cell C [CD24 positive cell]. […] Further, a separate dot plot where the X axis is CD44 and the Y axis is CD26 is created and fractions a′, b′, c′, and d′ are set as in the diagram on the top row right side. The proportion of fraction B when the target cells of analysis is 100% is the non-intended cell B [CD26 positive cell] content.
Method of calculating the E-ratio: Typically, fluorescence intensities differ depending on the type of fluorescence of a label or equipment setting. In a measurement under the following condition: PE-Cy7-labeled anti-human CD44 antibody (BD Biosciences) is used and Area Scaling Factor of Blue laser of FACS Canto II is set to 0.75 and the voltage of PE-Cy 7 is set to 495, gates are set as follows: First, fractions A, B, C, and D are set in a dot plot (FIG. 68, top row left side) with X axis as CD24 and Y axis as CD166. At this time, fraction A is CD24 negative and CD166 positive, fraction B is CD24 positive and CD166 positive, fraction C is CD24 negative and CD166 negative, and fraction D is CD24 positive and CD166 negative. The proportion of fraction B, when target cells for analysis is 100%, is considered the content of non-intended cell C [CD24 positive cell]. […] Further, a separate dot plot where the X axis is CD44 and the Y axis is CD26 is created and fractions a′, b′, c′, and d′ are set as in the diagram on the top row right side of FIG. 68. The proportion of fraction B, when the target cell of analysis is 100%, is the non-intended cell B [CD26 positive cell] content (see FIG. 68).
HCECs were collected from the culture dish by TrypLE Select treatment as described above and suspended at a concentration of 4×10^6 cells/mL in FACS buffer (PBS containing 1% BSA and 0.05% NaN3). An equal volume of antibody solution was added and incubated for 2 hours at 4.degrees. C. The antibody solutions comprised the following: FITC-conjugated anti-human CD26 mAb, PE-conjugated anti-human CD166 mAb, PerCP-Cy5.5 conjugated anti-human CD24 mAb, PE-Cy7-conjugated anti-human CD44 (all from BD Biosciences), and APC-conjugated anti-human CD105 (eBioscience, San Diego, Calif., USA). After washing with FACS buffer, the HCECs were analyzed with FACS Canto II (BD Biosciences).

[2] = tested on: cHCECs; assay: Phase contrast microscopy: morphology, cell area distribution, cultured cell density
Source text: Phase contrast microscope images were taken by an inverted microscope system (CKX41, Olympus, Tokyo, Japan). For the cell area distribution analysis, the cHCECs were washed with PBS (−) three times and the phase contrast images were acquired by a BZ X-700 Microscope system (Keyence, Osaka, Japan). The cell area distributions were quantified by BZ-H3C Hybrid cell count software (Keyence).
Phase contrast images ware taken by an inverted microscope system (CKX41, Olympus, Tokyo, Japan). For the cell area distribution analysis, the cHCECs were washed with PBS (−) three times and phase contrast images were acquired by a BZ X700 Microscope system (Keyence, Osaka, Japan). The area distributions were quantified by BZ-H3C Hybrid cell count software (Keyence).

[3] = tested on: HCECs; assay: Trichostatin A (TSA) treatment of HCECs; settings: medium supplemented with 0.5 .micro.M Trichostatin A
Protocol: HCECs with treated with Trichostatin A as follows. The Descemet's membranes with the corneal endothelial cells were stripped from donor corneas and digested at 37.degrees. C. with 1 mg/mL collagenase A (Roche Applied Science, Penzberg, Germany) for 2 hours. The HCECs obtained from a single donor cornea were seeded in one well of a Type I collagen-coated 6-well cell culture plate (Corning Inc., Corning, N.Y., USA). The Trichostatin A-containing medium was prepared with Opti-MEM-I (Life Technologies Corp., Carlsbad, Calif., USA), 8% fetal bovine serum (FBS), 5 ng/mL epidermal growth factor (EGF; Life Technologies), 20 .micro.g/mL ascorbic acid (Sigma-Aldrich Corp.), 200 mg/L calcium chloride (Sigma-Aldrich Corp., St. Louis, Mo., USA), 0.08% chondroitin sulfate (Wako Pure Chemical Industries, Ltd., Osaka, Japan), 50 .micro.g/mL of gentamicin, and 0.5 .micro.M of Trichostatin A. The HCECs were cultured using the Trichostatin A-containing medium at 37.degrees. C. in a humidified atmosphere containing 5% CO2. The culture medium was changed twice a week. The HCECs were subcultured at ratios of 1:3 using 10× TrypLE Select (Life Technologies) for 12 minutes at 37.degrees. C. when they reached confluence. The cells were cultured for 30 days. The HCECs from the second passage were used for observation with a fluorescence microscope.

[4] = tested on: cultured HCECs; assay: Centrifugation cell attachment assay: coated Descemet's membrane components and cell suspension vehicles; settings: for minimum concentration necessary for the observed cell binding: coating concentration; for binding / distribution of cultured HCECs in coated wells: U-bottomed 96-well plates coated with the component, 200×g for 2 minutes, Opti-MEM
Protocol: Cell attachment to laminins, […], proteoglycans and glycoprotein was tested by the centrifugation cell attachment assay described previously (Friedlander et al., 1998. J. Cell Biol. 107: p 2329) with some modifications. Laminin-521, -511, -411, and -332 were purchased from Veritas (Tokyo, Japan). Perlecan, Agrin, Nidogen-1, TSP-1 and Fibulin 5 were purchased from R&D Systems (Minneapolis, Minn.). Type IV collagen was purchased from BD Biosciences (San Jose, Calif., USA).
Each well of a U-shaped 96-well Maxisorp plate (Nunc) was coated with 40 .micro.l of laminin, collagen, proteoglycan or glycoprotein solution overnight at 4 degrees Celsius. The wells were washed three times with PBS (−) and blocked with 1% BSA in 0.1 M NaHCO3 (pH 8.0) for 1 hour at room temperature. The cultured HCECs were suspended in Opti-MEM, Opeguard-MA (Senju Pharmaceutical, Osaka, Japan) or BSS-Plus (Alcon Laboratories, Fort Worth, Tex., USA) at a concentration of 1×10^5 cells/mL, and 0.1 mL of the cell suspension was added to each well and incubated for 10 minutes. The plate was then centrifuged at 200×g for 2 minutes. The bright-field Z stack images were captured by a BZ-9000 microscope (Keyence, Osaka, Japan) at 2× objective magnification and omnifocal images were created from these images using BZ-II Analyzer software. In accordance with the description by Friedlander et al (Friedlander et al., 1998. J. Cell Biol. 107: p 2329), the cells were centrifuged into a pellet at the bottom of the well on non-adhesive substrates. As the adhesiveness of the substrate increased, more cells bound to the substrates along the wall of the well. Bond to the substrate is detected in a circular area with a measurable diameter at the bottom or the well. On strongly adhesive substrates, cells were distributed more or less uniformly on the well (Grumet M, Flaccus A, and Margolis R U. J. Cell Biol. 1993; 120:815-824).
As a method for assessing the attachment ability of HCECs, this Example performed a centrifugation cell attachment assay [Friedlander et al., 1998. J. Cell Biol. 107: p 2329] with some modification (FIG. 36). The cultured HCECs were detached from culture dishes as described in (Materials and Methods) and cell suspension was prepared at a concentration of 1×10^5 cells/ml. 100 .micro.l of the cell suspension was added to each well of the U-bottomed 96-well plates coated with laminin-511, laminin-411, Type IV collagen or other components of Descemet's membrane listed in Table 6. The plate was incubated for 10 minutes at room temperature and then centrifuged at 200×g for 2 minutes. The attached cells were assessed under a BZ-9000 microscope system as described in (Materials and Methods).

[5] = addition of Y-27632 during the culture for 47 days

For C[C@@H](N)[C@H]1CC[C@H](C(=O)Nc2ccncc2)CC1 [Lot Y-27632, (R)-(+)-trans-(4-pyridyl)-4-(1-aminoethyl)-cyclohexanecarboxamide dihydrochloride monohydrate], which E-ratios ([1]; Y-27632 added every three days throughout the entire culture period, TGF-beta signaling not inhibited, seeding density higher than 400 cells/mm^2) is on record?
Its E-ratios is ≥ 90%.

And the “improvement (E-ratio, increase in the proportion of intermediately differentiated corneal endothelial cells)” value ([1]; about 1 .micro.M)?
The value was “very little improvement”.

And the “improvement (E-ratio, increase in the proportion of intermediately differentiated corneal endothelial cells)” value ([1]; about 5 .micro.M)?
The value was “little”.

What about the “improvement (E-ratio, increase in the proportion of intermediately differentiated corneal endothelial cells)” value ([1]; about 10 .micro.M or more) of the same compound?
The value was “More of an effect”.

And the E-Ratio ([1]; addition of Y-27632 throughout 35 days of culture, 6th passage)?
The E-Ratio was 52.3%.

What about the “effect on the E-ratio” value [1] of the same compound?
The value was “further improved the E-ratio”.

And the average cell area [2, 5]?
Its average cell area is 216 .micro.m^2.

And the cultured cell density [2, 5]?
Its cultured cell density is 2582 cells/mm^2.

With C[S+]([O-])c1ccc(-c2nc(-c3ccc(F)cc3)c(-c3ccncc3)[nH]2)cc1 (centres unmarked) [SB203580, 4-(4-fluorophenyl)-2-(4-methylsulfinylphenyl)-5-(4-pyridyl)-1H-imidazole] as the compound, how does the “senescent form of cHCEC cultures” value ([2]; inhibitor added to the entire culture, cultures a5, a1, a2) read?
The value was “did not have any senescent form at first glance”.

With CC(/C=C/C(=O)NO)=C\[C@@H](C)C(=O)c1ccc(N(C)C)cc1 [Trichostatin A] as the compound, how does the “effect on the E-ratio” value [1] read?
Its value is “improved the E-ratio”.

And the “differentiation into mature cHCECs” value [3]?
The value was “can be promoted to differentiate into mature cHCECs”.

“Agrin: purchased from R&D Systems, Descemet's membrane component” was tested. Which “minimum concentration necessary for the observed cell binding” value (shortened to “minimum concentration necessary”) [4] did it give?
The value was 400 nM.

With “Perlecan: purchased from R&D Systems, Descemet's membrane component” as the compound, how does the “minimum concentration necessary” value [4] read?
Its value is 400 nM.

“TSP-1: purchased from R&D Systems, Descemet's membrane component” was tested. Which “minimum concentration necessary” value [4] did it give?
Its value is 400 nM.

“laminin-332: laminin purchased from Veritas, coating protein” was tested. Which “binding / distribution of cultured HCECs in coated wells” value (shortened to “binding / distribution”) [4] did it give?
The value was “formed a circular pellet”.

For “laminin-411: laminin purchased from Veritas, coating protein”, which “binding / distribution” value [4] is on record?
Its value is “formed a circular pellet”.

And the “minimum concentration necessary” value [4]?
Its value is 1.25 nM and 2.85 .micro.g/mL.

For “laminin-511: laminin purchased from Veritas, coating protein”, which “binding / distribution” value [4] is on record?
Its value is “uniformly distributed; also recorded: concentration dependent manner”.

What about the “minimum concentration necessary” value [4] of the same compound?
Its value is 4 pM and 3 ng/mL.

How did the “binding / distribution” value [4] turn out when “laminin-521: laminin purchased from Veritas, coating protein” was run?
Its value is “uniformly distributed; also recorded: concentration dependent manner”.
